Assays:
WT and Ts65Dn mice = assay: Open-field locomotor assay (LMA), 30 min session; type: in vivo, mouse
Protocol: (§1) Following baseline determinations and group assignments, WT and Ts65Dn mice received intraperitoneal (i.p.) injections once/day (08:00) for the two-week duration of the drug treatment regimen (FIG. 1). Drugs were dissolved in physiological saline. Two drops of Tween 80 were used to facilitate solution formation for flumazenil. Picrotoxin was initially made up at 50× concentration in 20% ethanol and then diluted down to a […] solution with 0.4% ETOH in saline. Doses of drugs were based on previous behavioral research in mice (1 mg/kg for PTX and 10 mg/kg for flumazenil). Injections were given in a volume of 10 ml/kg. A vehicle control was run along side the treatment groups (0.4% ETOH in saline).
(§2) FIG. 1 graphically depicts the protocol. After habituation to the animal facility, mice were tested for baseline behaviors in the open-field locomotor assay (LMA)(30 min session) and the novel object recognition assay. Primary experimental groups were divided by genotype (Ts65Dn mice and wild-type control littermates). These two groups were further divided into drug treatments (vehicle, PTX and flumazenil) with a targeted n-size of 8 mice/group (24 WT and 24 Ts65Dn mice total). The group assignments were made in a semi-random process due to constraints in animal availability (staggered shipping) and choice of initial treatment groups (e-mail documentation between Bilsky laboratory and Cypress Bioscience on file). Daily morning injections began on Day 1 and went through the morning of Day 14. On Days 7/8 and 14/15 (13:00) mice were tested in the behavioral assay. Mice were kept for an additional two weeks and re-tested on Days 21/22 and 28/29 to assess the duration of the drug treatment effect.
General levels of arousal, locomotor activity and anxiety were assessed using an automated open-field activity monitoring system (Coulbourn Instruments with TruScan software). The open field test that were run were fully automated assays that quantified many different aspects and patterns of movement, including total distance traveled, time spent moving, rearing, and various stereotypic patterns of activity. The software calculates the time spent in the middle portions of the open field versus the outer zones alongside the outside walls. These variables can be used as one measure of general anxiety levels.
Mice were placed into an open field (26 cm×26 cm) in a brightly lit room. Two sensor rings (x-y plane and a vertical z plane) generate an array of infrared beams that surround the chamber. The pattern of beam breaks was recorded and the data fed into a personal computer. The TruScan software interpreted the beam breaks to calculate the movement variables and patterns of activity, with a temporal resolution of 100 msec. A 30 minutes session was used for assessment of the mice on Day 0 (Baseline) and then on Days 1, 7, 14, 21 and 28. Data were exported into an Excel spreadsheet, graphed and analyzed using parametric and non-parametric statistics.

WT mice = assay: Novel object recognition assay (Discrimination Index) in WT mice; type: in vivo, mouse
Protocol: as §1, §2
(§3) The novel object recognition task is based on the innate tendency of rodents to differentially explore novel objects over familiar ones. The task is well validated for evaluating rodent memory and the effects of drug treatments on learning/memory performance.
(§4) Mice were trained and tested once per week, each experimental session separated by a one-week interval. Mice were submitted to daily handling sessions, and given an opportunity to habituate to an open field arena (48 cm×48 cm wide×25 cm), where they were exposed to two different objects (complex protocol), during a 5-minute training session. Objects were made from various non-porous materials that differ in shape and color. Mice were unable to climb onto the objects and the objects were generally consistent in height and volume, and were roughly symmetrical on a horizontal plane. Objects were positioned in two corners of the apparatus. To control for odor cues, the open field arena and the objects are thoroughly cleaned with 90% ethanol, dried, and ventilated for a few minutes between mice.
(§5) A 5-minute testing session was conducted 24 h after training. Here, the mice were presented with the object they had explored the previous day, and a new item (the objects being alternatively positioned in one corner or another in a balanced fashion within a given week, and from one week to another). […]

Ts65Dn mice [1] = assay: Novel object recognition assay (Discrimination Index) in Ts65Dn mice, model of Down syndrome; type: in vivo, mouse
Protocol: as §1, §2, §3, §4, §5

Ts65Dn mice [2] = settings: cited from earlier work; for improvement in cognition: 4 week crossover study
Ts65Dn mice [3] = type: in vivo, mouse; settings: 4-week crossover, flumazenil or bretazenil 1.0 mg/kg i.p. for 2 weeks, bilobalide 5.0 mg/kg i.p. throughout
Protocol: (§6) A 4-week longitudinal crossover study is carried out following the method outlined by Fernandez et al., supra. Wild-type and Ts65Dn mice (3-4 months of age) are randomly assigned to groups receiving daily i.p. injections of saline or flumazenil (1.0 mg/kg), and are submitted to four weekly repetitions of object recognition testing, in which the animals are serially presented with four different object sets. At the 2-week midpoint of the experimental period, wild-type and Ts65Dn mice that have been receiving saline are randomly segregated into groups that either continue to receive daily saline injections or begin to receive daily injections of flumazenil. Conversely, wild-type and Ts65Dn mice that have been chronically administered flumazenil in the first 2 weeks of testing are switched onto a saline regimen. Alongside saline and flumazenil, bilobalide (i.p. 5.0 mg/kg) may be evaluated as a positive control. Bilobalide is a picrotoxin-like compound that may safely be administered for the whole 4-week experiment.
(§7) Flumazenil may also be tested for its effects on declarative memory in the novel object recognition test and in a modified spontaneous alternation task. Wild-type and Ts65Dn mice may be administered flumazenil (3 mg/kg in milk via voluntary oral feeding or 1 mg/kg i.p.). The wild-type and Ts65Dn mice are administered from 5 to 30 doses of milk or milk-flumazenil (or saline or flumazenil solution i.p.). The mice are then subjected to two repetitions of novel object recognition testing or three daily T-maze sessions at the tail end of the treatment regimen. […] Comparison of treated and untreated Ts65Dn mice will provide controls for any possible arm bias in the spontaneous alternation task.
as §6, with “bretazenil” for “flumazenil”, “bretazenil.” for “flumazenil.”, “bretazenil,” for “flumazenil,”
as §7, with “Bretazenil may” for “Flumazenil may”, “administered bretazenil” for “administered flumazenil”

Ts65Dn mice [4] = assay: Long-term potentiation (LTP) in the dentate gyrus of Ts65Dn mice (paper Examples 1 and 2); type: in vivo, mouse; settings: about 1 month after cessation of drug treatment
From the text: Since the ability of animals to learn and remember is thought to be encoded at the synaptic level, and involves the ability of synapses to undergo long-term changes in synapse strength, long-term potentiation (LTP) in the dentate gyrus may be evaluated.

Down Syndrome patients = assay: Cognition in Down Syndrome patients, double-blind cross-over (Example 3); type: in vivo, human; settings: 5 and 20 mg
Protocol: Fifteen adult or adolescent Down Syndrome patients experiencing at least some level of cognitive impairment participate in a double-blind, cross-over comparison of […]. The drugs administered are flumazenil (5 and 20 mg), bretazenil (5 and 20 mg) or placebo. Subjects are randomly assigned to treatments according to a Williams Square design (Higgitt, supra (citing Williams, “Experimental designs balanced for the estimation of residual effects of treatments, Aust. J. Sci. Res. 2:149-168 (1949))). Each subject receives a different sequence of four treatments balanced for carry-over effects and separated by at least 1 week of wash-out period. […]
Psychophysiological indices to be measured include: EEG, skin conductance, finger tremor, critical flicker fusion threshold, blood pressure and pulse rate, key tapping rate, and reaction time. […]
EEG and evoked responses: These are recorded during the same EEG recording procedure. […] In addition, the four values are summed and each is expressed as a percentage of the total.
The averaged evoked responses are obtained from the 500 ms epoch of the EEG following each of the 32 click stimuli. […] The latency at each peak and peak-to-peak amplitudes are computed and recorded automatically. […]
Skin conductance, blood pressure and pulse rate can be measured by the method of Higgitt et al., supra. […]

[5] = Week 1 of drug therapy, PTX 1 mg/kg, flumazenil 10 mg/kg i.p.

Compound | LMA center distance traveled (WT and Ts65Dn mice; 7 and 14 days post dosing) | LMA margin vs. center time (WT and Ts65Dn mice; Day 1) | LMA margin vs. center time (WT and Ts65Dn mice; Day 7) | LMA margin vs. center time (WT and Ts65Dn mice; Day 21 (washout period)) | LMA margin vs. center time (WT and Ts65Dn mice; Day 28 (washout period)) | LMA vertical rearing (WT and Ts65Dn mice; WT and Ts65Dn mice, PTX during drug administration phases, flumazenil over the 4 week testing regimen) | LMA marginal distance traveled (WT and Ts65Dn mice; WT and Ts65Dn mice, across sessions, PTX 1 mg/kg, flumazenil 10 mg/kg i.p.) | LMA total distance traveled (WT and Ts65Dn mice; dosing phase (Days 1, 7 and 14), PTX 1 mg/kg i.p.) | LMA center distance traveled (WT and Ts65Dn mice; drug administration phase (Days 1, 7 and 14), PTX 1 mg/kg, flumazenil 10 mg/kg i.p.) | time after last dosing until LMA effects were gone (WT and Ts65Dn mice; total distance traveled, PTX 1 mg/kg i.p.) | Discrimination Index (DI) (WT mice; [5]) | Discrimination Index (DI) (WT mice; Week 2 of drug therapy, versus vehicle) | Discrimination Index (DI) (WT mice; Week 4 (2 weeks post dosing)) | Discrimination Index (DI) (Ts65Dn mice [1]; [5]) | Discrimination Index (DI) (Ts65Dn mice [1]; Week 2 of drug therapy) | improvement in cognition (Ts65Dn mice [2]) | rescue of cognition (Ts65Dn mice [2]; Ts65Dn mice, two-week dosing regimen of 1.0 mg/kg i.p.) | object recognition performance (Ts65Dn mice [3]) | LTP in the dentate gyrus (Ts65Dn mice [4]) | indicators of cognition as compared to placebo (Down Syndrome patients)
picrotoxin [PTX] | mild rebound effect | trend for decreased center time | small decrease in time spent in the center zone | increased time spent in center | trend for increased time spent in the center zone | dropping significantly | decreased distance traveled | modest decrease | decreased levels of activity | ≤ 7 days | ~30 | no differences | positive DI | positive effects | positive effects | statistically significant improvement | clear benefit |  |  | 
CC(C)(C)OC(=O)c1ncn2c1[C@@H]1CCCN1C(=O)c1c(Br)cccc1-2 [bretazenil, tert-butyl-(S)-8-bromo-11,12,13,13a-tetrahydro-9-oxo-9H-imidazo[1,5-a]pyrrolo[2,1-c][1,4]benzodiazepine-1-carboxylate] |  |  |  |  |  |  |  |  |  |  |  |  |  |  |  |  |  | normalized object recognition performance | Normalized LTP | improvement in one or more indicators of cognition
CC(C)(C)[C@]1(O)CC2OC(=O)CC23C(=O)OC2OC(=O)[C@H](O)C231 (stereo partly shown) [bilobalide] |  |  |  |  |  |  |  |  |  |  |  |  |  |  |  | statistically significant improvement |  | normalized object recognition performance |  | 

Reference: patent US20090270373A1, “TREATMENT OF DOWN SYNDROM WITH BENZODIAZEPINE RECEPTOR ANTAGONISTS” (Cypress Biosciences, Inc., priority 2008, published 2009)
